Laboratory results as given in patent US20090317452A1, “Transdermal patch” (Sekisui Chemical Co. td., priority 2006, published 2009).

Key:
Format in all cases: physicochemical
[1] = Solvency of the active substance in monomers (visual inspection); set-up: key: Excellent: The active substance was not found to have been precipitated in the solution of active substance both immediately after the preparation and after the preservation for 7 days.; Good: The active substance was found to have been precipitated in the solution of active substance immediately after the preparation, but the active substance was not found to have been precipitated in the solution of active substance after the preservation for 7 days.; Poor: The active substance was found to have been precipitated in the solution of active substance both immediately after the preparation and after the preservation for 7 days; conditions: 25° C., 7 days
[2] = Residual rate of the active substance in monomer solution (HPLC); conditions: for Residual Rate (% by weight) after 7 Days: 25° C.
[3] = Solvency of DMAE in alcohol/additive; conditions: 25° C.
Method: When a crystal of DMAE was precipitated […], and when a crystal of DMAE was not precipitated, the solvency was evaluated to be “poor”.

[4] = Solubility of DMAE at 25° C. in alcohol/additive
Source text: When the content of the saturated aliphatic monohydric alcohol is small in the plaster layer described above, the solvency and diffusibility of the DMAEs in the plaster layer decrease, and the transdermal absorbency of the DMAEs becomes insufficient. When the content of the saturated aliphatic monohydric alcohol is large in the plaster layer, the acrylic adhesive in the plaster layer becomes excessively plasticized, leading to an adhesive transfer when the transdermal patch is removed away from the skin. Therefore, the content of the saturated aliphatic monohydric alcohol in the plaster layer is limited to 1 to 30% by weight, and preferably 5 to 30%.
An excess amount of DMAEs is added to the saturated aliphatic monohydric alcohol, a weight W0 (g) of the alcohol being measured in advance; a solution temperature is set at 50° C. to keep the warmth for one hour or more than one hour; and then a shaking operation is continued in a water bath of 25° C. for 10 minutes by means of supersonic waves to prepare a DMAEs saturated solution. Next, the DMAEs saturated solution, after being arranged to stand still for 24 hours at 25° C., is centrifuged at a speed of 3000 r.p.m., and a certain amount of clear supernatant solution of the DMAEs saturated solution is collected. Then, such collected clear supernatant solution is subjected to HPLC determination to determine a weight W1 (g) of the DMAEs dissolved in the DMAEs saturated solution, and solubility of the DMAEs with respect to the saturated aliphatic monohydric alcohol is figured out by using the following equation (1).
Solubility of DMAEs (g)=(W1/W0)×100 Equation (1)

[5] = 3 parts active substance in 100 parts 1-Vinyl-2-Pyrrolidone
[6] = 3 parts active substance in 100 parts 2-Ethylhexyl Acrylate
[7] = 3 parts active substance in 100 parts 2-Ethylhexyl Methacrylate
[8] = 3 parts active substance in 100 parts Acrylic Acid
[9] = 3 parts active substance in 100 parts Butyl Acrylate
[10] = 3 parts active substance in 100 parts Butyl Methacrylate
[11] = 3 parts active substance in 100 parts Dodecyl Methacrylate
[12] = 3 parts active substance in 100 parts Ethyl Acrylate
[13] = in Butyl Acrylate, N.D. = equal to or less than the HPLC detection limit
[14] = in Ethyl Acrylate, N.D. = equal to or less than the HPLC detection limit

Structure (SMILES): COc1ccc2c(c1)c(CC(=O)O)c(C)n2C(=O)c1ccc(Cl)cc1 [IMT, indomethacin]
- Solvency of the active substance [1, 5]: Excellent
- Solvency of the active substance [1, 6]: Poor
- Solvency of the active substance [1, 7]: Poor
- Solvency of the active substance [1, 8]: Excellent
- Solvency of the active substance [1, 9]: Poor
- Solvency of the active substance [1, 10]: Poor
- Solvency of the active substance [1, 11]: Poor
- Solvency of the active substance [1, 12]: Poor
- Residual Rate (% by weight) Immediately after Preparation ([2]; in 1-Vinyl-2-Pyrrolidone): 100 % by weight
- Residual Rate (% by weight) after 7 Days ([2]; in 1-Vinyl-2-Pyrrolidone): 100 % by weight
- Residual Rate (% by weight) Immediately after Preparation ([2]; in 2-Ethylhexyl Acrylate): 100 % by weight
- Residual Rate (% by weight) after 7 Days ([2]; in 2-Ethylhexyl Acrylate): 100 % by weight
- Residual Rate (% by weight) Immediately after Preparation ([2]; in 2-Ethylhexyl Methacrylate): 100 % by weight
- Residual Rate (% by weight) after 7 Days ([2]; in 2-Ethylhexyl Methacrylate): 100 % by weight
- Residual Rate (% by weight) Immediately after Preparation ([2]; in Acrylic Acid): 100 % by weight
- Residual Rate (% by weight) after 7 Days ([2]; in Acrylic Acid): 100 % by weight
- Residual Rate (% by weight) Immediately after Preparation ([2]; in Butyl Acrylate): 100 % by weight
- Residual Rate (% by weight) after 7 Days [2, 13]: 100 % by weight
- Residual Rate (% by weight) Immediately after Preparation ([2]; in Butyl Methacrylate): 100 % by weight
- Residual Rate (% by weight) after 7 Days ([2]; in Butyl Methacrylate): 99 % by weight
- Residual Rate (% by weight) Immediately after Preparation ([2]; in Dodecyl Methacrylate): 100 % by weight
- Residual Rate (% by weight) after 7 Days ([2]; in Dodecyl Methacrylate): 100 % by weight
- Residual Rate (% by weight) after 7 Days ([2]; in Ethyl Acrylate): 99 % by weight
- Residual Rate (% by weight) Immediately after Preparation [2, 14]: 100 % by weight

Structure (SMILES): O=[N+]([O-])O[C@H]1CO[C@H]2[C@@H]1OC[C@H]2O[N+](=O)[O-] [ISDN, isosorbide dinitrate]
- Solvency of the active substance [1, 5]: Excellent
- Solvency of the active substance [1, 6]: Excellent
- Solvency of the active substance [1, 7]: Excellent
- Solvency of the active substance [1, 8]: Excellent
- Solvency of the active substance [1, 9]: Excellent
- Solvency of the active substance [1, 10]: Excellent
- Solvency of the active substance [1, 11]: Excellent
- Solvency of the active substance [1, 12]: Excellent
- Residual Rate (% by weight) Immediately after Preparation ([2]; in 1-Vinyl-2-Pyrrolidone): 100 % by weight
- Residual Rate (% by weight) after 7 Days ([2]; in 1-Vinyl-2-Pyrrolidone): 100 % by weight
- Residual Rate (% by weight) Immediately after Preparation ([2]; in 2-Ethylhexyl Acrylate): 100 % by weight
- Residual Rate (% by weight) after 7 Days ([2]; in 2-Ethylhexyl Acrylate): 100 % by weight
- Residual Rate (% by weight) Immediately after Preparation ([2]; in 2-Ethylhexyl Methacrylate): 100 % by weight
- Residual Rate (% by weight) after 7 Days ([2]; in 2-Ethylhexyl Methacrylate): 99 % by weight
- Residual Rate (% by weight) Immediately after Preparation ([2]; in Acrylic Acid): 100 % by weight
- Residual Rate (% by weight) after 7 Days ([2]; in Acrylic Acid): 100 % by weight
- Residual Rate (% by weight) Immediately after Preparation ([2]; in Butyl Acrylate): 100 % by weight
- Residual Rate (% by weight) after 7 Days [2, 13]: 100 % by weight
- Residual Rate (% by weight) Immediately after Preparation ([2]; in Butyl Methacrylate): 100 % by weight
- Residual Rate (% by weight) after 7 Days ([2]; in Butyl Methacrylate): 100 % by weight
- Residual Rate (% by weight) Immediately after Preparation ([2]; in Dodecyl Methacrylate): 100 % by weight
- Residual Rate (% by weight) after 7 Days ([2]; in Dodecyl Methacrylate): 100 % by weight
- Residual Rate (% by weight) after 7 Days ([2]; in Ethyl Acrylate): 100 % by weight
- Residual Rate (% by weight) Immediately after Preparation [2, 14]: 100 % by weight

Structure (SMILES): CC(C)(C)NCC(O)c1ccccc1Cl (stereo not shown) [TB, tulobuterol]
- Solvency of the active substance [1, 5]: Excellent
- Solvency of the active substance [1, 6]: Excellent
- Solvency of the active substance [1, 7]: Excellent
- Solvency of the active substance [1, 8]: Excellent
- Solvency of the active substance [1, 9]: Excellent
- Solvency of the active substance [1, 10]: Excellent
- Solvency of the active substance [1, 11]: Good
- Solvency of the active substance [1, 12]: Excellent
- Residual Rate (% by weight) Immediately after Preparation ([2]; in 1-Vinyl-2-Pyrrolidone): 100 % by weight
- Residual Rate (% by weight) after 7 Days ([2]; in 1-Vinyl-2-Pyrrolidone): 100 % by weight
- Residual Rate (% by weight) Immediately after Preparation ([2]; in 2-Ethylhexyl Acrylate): 100 % by weight
- Residual Rate (% by weight) after 7 Days ([2]; in 2-Ethylhexyl Acrylate): 88 % by weight
- Residual Rate (% by weight) Immediately after Preparation ([2]; in 2-Ethylhexyl Methacrylate): 100 % by weight
- Residual Rate (% by weight) after 7 Days ([2]; in 2-Ethylhexyl Methacrylate): 100 % by weight
- Residual Rate (% by weight) Immediately after Preparation ([2]; in Acrylic Acid): 100 % by weight
- Residual Rate (% by weight) after 7 Days ([2]; in Acrylic Acid): 96 % by weight
- Residual Rate (% by weight) Immediately after Preparation ([2]; in Butyl Acrylate): 100 % by weight
- Residual Rate (% by weight) after 7 Days [2, 13]: 81 % by weight
- Residual Rate (% by weight) Immediately after Preparation ([2]; in Butyl Methacrylate): 100 % by weight
- Residual Rate (% by weight) after 7 Days ([2]; in Butyl Methacrylate): 100 % by weight
- Residual Rate (% by weight) Immediately after Preparation ([2]; in Dodecyl Methacrylate): 100 % by weight
- Residual Rate (% by weight) after 7 Days ([2]; in Dodecyl Methacrylate): 100 % by weight
- Residual Rate (% by weight) after 7 Days ([2]; in Ethyl Acrylate): 70 % by weight
- Residual Rate (% by weight) Immediately after Preparation [2, 14]: 100 % by weight

Structure (SMILES): COc1ccc(OC)c(C(O)CN)c1 (stereo not shown) [DMAE, 2-amino-1-(2′,5′-dimethoxyphenyl)ethanol]
- Solvency of the active substance [1, 5]: Poor
- Solvency of the active substance [1, 6]: Poor
- Solvency of the active substance [1, 7]: Poor
- Solvency of the active substance [1, 8]: Excellent
- Solvency of the active substance [1, 9]: Good
- Solvency of the active substance [1, 10]: Poor
- Solvency of the active substance [1, 11]: Poor
- Solvency of the active substance [1, 12]: Excellent
- Residual Rate (% by weight) Immediately after Preparation ([2]; in 1-Vinyl-2-Pyrrolidone): 100 % by weight
- Residual Rate (% by weight) after 7 Days ([2]; in 1-Vinyl-2-Pyrrolidone): 100 % by weight
- Residual Rate (% by weight) Immediately after Preparation ([2]; in 2-Ethylhexyl Acrylate): 39 % by weight
- Residual Rate (% by weight) after 7 Days ([2]; in 2-Ethylhexyl Acrylate): 11 % by weight
- Residual Rate (% by weight) Immediately after Preparation ([2]; in 2-Ethylhexyl Methacrylate): 99 % by weight
- Residual Rate (% by weight) after 7 Days ([2]; in 2-Ethylhexyl Methacrylate): 99 % by weight
- Residual Rate (% by weight) Immediately after Preparation ([2]; in Acrylic Acid): 99 % by weight
- Residual Rate (% by weight) after 7 Days ([2]; in Acrylic Acid): 97 % by weight
- Residual Rate (% by weight) Immediately after Preparation ([2]; in Butyl Acrylate): 27 % by weight
- Residual Rate (% by weight) Immediately after Preparation ([2]; in Butyl Methacrylate): 98 % by weight
- Residual Rate (% by weight) after 7 Days ([2]; in Butyl Methacrylate): 98 % by weight
- Residual Rate (% by weight) Immediately after Preparation ([2]; in Dodecyl Methacrylate): 100 % by weight
- Residual Rate (% by weight) after 7 Days ([2]; in Dodecyl Methacrylate): 99 % by weight
- Solvency of DMAE ([3]; 50 parts DMAE in 950 parts Butylene Glycol): Poor
- Solvency of DMAE ([3]; 50 parts DMAE in 950 parts Diethyl Sebacate): Excellent
- Solvency of DMAE ([3]; 50 parts DMAE in 950 parts Hexyldecanol): Excellent
- Solvency of DMAE ([3]; 50 parts DMAE in 950 parts Isostearic Acid): Poor
- Solvency of DMAE ([3]; 50 parts DMAE in 950 parts Isostearyl Alcohol): Excellent
- Solvency of DMAE ([3]; 50 parts DMAE in 950 parts Lauryl Alcohol): Excellent
- Solvency of DMAE ([3]; 50 parts DMAE in 950 parts Liquid Paraffin): Excellent
- Solvency of DMAE ([3]; 50 parts DMAE in 950 parts Medium-chain Triglyceride): Excellent
- Solvency of DMAE ([3]; 50 parts DMAE in 950 parts Monoethanolamine): Poor
- Solvency of DMAE ([3]; 50 parts DMAE in 950 parts Octanediol): Poor
- Solvency of DMAE ([3]; 50 parts DMAE in 950 parts Octyldodecanol): Excellent
- Solvency of DMAE ([3]; 50 parts DMAE in 950 parts Oleic Acid): Excellent
- Solvency of DMAE ([3]; 50 parts DMAE in 950 parts Oleyl Alcohol): Excellent
- Solvency of DMAE ([3]; 50 parts DMAE in 950 parts Polyoxyethylene (2) Lauryl Ether): Excellent
- Solvency of DMAE ([3]; 50 parts DMAE in 950 parts Propylene Glycol): Poor
- Solvency of DMAE ([3]; 50 parts DMAE in 950 parts Squalane): Excellent
- Solvency of DMAE ([3]; 50 parts DMAE in 950 parts Triacetin): Poor
- Solubility of DMAE ([4]; g DMAE per 100 g Diethyl Sebacate at 25° C.): 0.87 g
- Solubility of DMAE ([4]; g DMAE per 100 g Hexyldecanol at 25° C.): 1.4 g
- Solubility of DMAE ([4]; g DMAE per 100 g Isostearyl Alcohol at 25° C.): 1.8 g
- Solubility of DMAE ([4]; g DMAE per 100 g Lauryl Alcohol at 25° C.): 2.6 g
- Solubility of DMAE ([4]; g DMAE per 100 g Liquid Paraffin at 25° C.): 0.02 g
- Solubility of DMAE ([4]; g DMAE per 100 g Medium-chain Triglyceride at 25° C.): 0.31 g
- Solubility of DMAE ([4]; g DMAE per 100 g Octyldodecanol at 25° C.): 0.84 g
- Solubility of DMAE ([4]; g DMAE per 100 g Oleic Acid at 25° C.): 3.7 g
- Solubility of DMAE ([4]; g DMAE per 100 g Oleyl Alcohol at 25° C.): 2.5 g
- Solubility of DMAE ([4]; g DMAE per 100 g Polyoxyethylene (2) Lauryl Ether at 25° C.): 3.7 g
- Solubility of DMAE ([4]; g DMAE per 100 g Squalane at 25° C.): 0.01 g
